According to US10899753B2, “Inhibiting agents for Bruton's tyrosine kinase” (BIOGEN MA INC., priority 2018, dated 2021):

Assays:
BTK [1] = target: T1, BTK (Homo sapiens (Human), UniProt Q06187); test: In Vitro BTK Kinase Assay: BTK-POLYGAT-LS ASSAY; type: biochemical; conditions: fluorescein-labeled polyGAT peptide 100 nM, BTK enzyme 0.25 nM, 30 minutes, TRF
Method in brief: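 ATP […] and polyGAT peptide (100 nM), final concentrations, in Tris-HCl pH 7.5 kinase buffer with MgCl2, DTT, Triton X-100 and casein. Reaction run 30 min, stopped with EDTA, then 45 min at room temperature.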

BTK [2] = target: T1, BTK; test: In Vitro PD Assay in Human Whole Blood (pBTK assay); type: cell-based; conditions: human heparinized whole blood, 37° C. for 30 min, total BTK capture and phosphotyrosine detection (ECL)
Method in brief: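 Heparinized human venous whole blood spiked with serially diluted compound (0.1% DMSO final) and incubated 30 min at 37° C. Lysed with protease/phosphatase inhibitors (high control +PPi, low control −PPi lacking phosphatase inhibitors); total BTK captured and phosphotyrosine detected.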

T1 sequence (Q06187 whole entry): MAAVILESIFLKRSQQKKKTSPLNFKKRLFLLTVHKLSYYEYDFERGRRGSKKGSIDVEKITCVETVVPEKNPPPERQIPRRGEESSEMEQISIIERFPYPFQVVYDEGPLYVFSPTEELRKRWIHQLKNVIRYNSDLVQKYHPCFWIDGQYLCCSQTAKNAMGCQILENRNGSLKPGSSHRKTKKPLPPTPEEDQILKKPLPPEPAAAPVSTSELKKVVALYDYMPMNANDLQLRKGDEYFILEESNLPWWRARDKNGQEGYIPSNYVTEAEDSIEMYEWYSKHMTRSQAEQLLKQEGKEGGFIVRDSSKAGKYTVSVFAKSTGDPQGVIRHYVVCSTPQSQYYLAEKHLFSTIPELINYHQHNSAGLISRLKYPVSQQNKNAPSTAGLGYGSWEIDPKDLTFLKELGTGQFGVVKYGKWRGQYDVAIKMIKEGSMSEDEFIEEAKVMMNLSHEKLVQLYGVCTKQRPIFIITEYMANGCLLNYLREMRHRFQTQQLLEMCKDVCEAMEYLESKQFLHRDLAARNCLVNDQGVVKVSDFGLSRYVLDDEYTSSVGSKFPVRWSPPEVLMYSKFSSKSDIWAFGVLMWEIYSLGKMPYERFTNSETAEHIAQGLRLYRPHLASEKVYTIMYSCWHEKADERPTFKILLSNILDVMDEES

Row | Compound | IC50 (BTK [1]) [nM] | IC50 (BTK [2]) [nM]
1 | Cc1c(CNC(=O)c2nc(C(C)(C)C)no2)ccc(-c2ncnc(Nc3cnn(C)c3)n2)c1F [Compound 14, 3-(tert-butyl)-N-(3-fluoro-2-methyl-4-(4-((1-methyl-1H-pyrazol-4-yl)amino)-1,3,5-triazin-2-yl)benzyl)-1,2,4-oxadiazole-5-carboxamide] | < 1 | < 100
2 | Cc1c([C@@H](C)NC(=O)c2nc(C(C)(C)C)no2)ccc(-c2ncnc(Nc3cnn(C)c3)n2)c1Cl [Compound 80, (R)-3-(tert-butyl)-N-(1-(3-chloro-2-methyl-4-(4-((1-methyl-1H-pyrazol-4-yl)amino)-1,3,5-triazin-2-yl)phenyl)ethyl)-1,2,4-oxadiazole-5-carboxamide] | < 1 | 100 to 500
3 | Cc1c([C@@H](C)NC(=O)c2noc(C(C)(C)C)n2)ccc(-c2ncnc(Nc3cnn(C)c3)n2)c1Cl [Compound 81, (R)-5-(tert-butyl)-N-(1-(3-chloro-2-methyl-4-(4-((1-methyl-1H-pyrazol-4-yl)amino)-1,3,5-triazin-2-yl)phenyl)ethyl)-1,2,4-oxadiazole-3-carboxamide] | < 1 | < 100
4 | Cc1cc(-c2ncnc(Nc3ccn(C)n3)n2)ccc1CNC(=O)c1nn(C(C)(C)C)cc1F [Compound 4, 1-(tert-butyl)-4-fluoro-N-(2-methyl-4-(4-((1-methyl-1H-pyrazol-3-yl)amino)-1,3,5-triazin-2-yl)benzyl)-1H-pyrazole-3-carboxamide] | 1 to 10 | > 10000
5 | C[C@@H](NC(=O)c1noc(C(C)(C)C)n1)c1ccc(-c2ncnc(Nc3cnn(C)c3)n2)c(F)c1Cl [Compound 69, (R)-5-(tert-butyl)-N-(1-(2-chloro-3-fluoro-4-(4-((1-methyl-1H-pyrazol-4-yl)amino)-1,3,5-triazin-2-yl)phenyl)ethyl)-1,2,4-oxadiazole-3-carboxamide] | < 1 | < 100
6 | Cc1cc(-c2ncnc(Nc3cnn(C)c3)n2)c(F)cc1CNC(=O)c1cc(C(C)(C)C)no1 [Compound 63, 3-(tert-butyl)-N-(5-fluoro-2-methyl-4-(4-((1-methyl-1H-pyrazol-4-yl)amino)-1,3,5-triazin-2-yl)benzyl)isoxazole-5-carboxamide] | < 1 | 500 to 10000
7 | Cn1cc(Nc2ncnc(-c3ccc4c(c3)CCCC[C@H]4NC(=O)c3cnc(C(C)(C)C)o3)n2)cn1 [Compound 35, 2-tert-butyl-N-[(5R)-2-[4-[(1-methylpyrazol-4-yl)amino]-1,3,5-triazin-2-yl]-6,7,8,9-tetrahydro-5H-benzo[7]annulen-5-yl]-oxazole-5-carboxamide] | < 1 | 100 to 500
8 | Cc1cc(-c2ncnc(Nc3cnn(C)c3)n2)ccc1CNC(=O)c1coc(C(C)(C)C)n1 [Compound 107, 2-(tert-butyl)-N-(2-methyl-4-(4-((1-methyl-1H-pyrazol-4-yl)amino)-1,3,5-triazin-2-yl)benzyl)oxazole-4-carboxamide] | < 1 | 500 to 10000
